The text below walks through data of patent publication US9334286B2, “Pharmacologically active compounds” (Cancer Research Technology Limited, priority 2012, dated 2016).

As usually defined, the IC50 is the midpoint of a concentration-inhibition curve. High values mean a need for much substance, low ones inhibition by little substance.

For the experiment, the target named is full length MPS1 (Homo sapiens (Human), UniProt P33981). Briefly: Measurement of inhibition of MPS1 kinase (Caliper EZ reader, fluorescent labelled peptide H236). Format: biochemical. As to conditions: full length MPS1 12.5 nM or 3 nM, peptide H236 5 μM, ATP 10 μM, 60 min at room temperature.
Chain of full length MPS1 (P33981 whole entry): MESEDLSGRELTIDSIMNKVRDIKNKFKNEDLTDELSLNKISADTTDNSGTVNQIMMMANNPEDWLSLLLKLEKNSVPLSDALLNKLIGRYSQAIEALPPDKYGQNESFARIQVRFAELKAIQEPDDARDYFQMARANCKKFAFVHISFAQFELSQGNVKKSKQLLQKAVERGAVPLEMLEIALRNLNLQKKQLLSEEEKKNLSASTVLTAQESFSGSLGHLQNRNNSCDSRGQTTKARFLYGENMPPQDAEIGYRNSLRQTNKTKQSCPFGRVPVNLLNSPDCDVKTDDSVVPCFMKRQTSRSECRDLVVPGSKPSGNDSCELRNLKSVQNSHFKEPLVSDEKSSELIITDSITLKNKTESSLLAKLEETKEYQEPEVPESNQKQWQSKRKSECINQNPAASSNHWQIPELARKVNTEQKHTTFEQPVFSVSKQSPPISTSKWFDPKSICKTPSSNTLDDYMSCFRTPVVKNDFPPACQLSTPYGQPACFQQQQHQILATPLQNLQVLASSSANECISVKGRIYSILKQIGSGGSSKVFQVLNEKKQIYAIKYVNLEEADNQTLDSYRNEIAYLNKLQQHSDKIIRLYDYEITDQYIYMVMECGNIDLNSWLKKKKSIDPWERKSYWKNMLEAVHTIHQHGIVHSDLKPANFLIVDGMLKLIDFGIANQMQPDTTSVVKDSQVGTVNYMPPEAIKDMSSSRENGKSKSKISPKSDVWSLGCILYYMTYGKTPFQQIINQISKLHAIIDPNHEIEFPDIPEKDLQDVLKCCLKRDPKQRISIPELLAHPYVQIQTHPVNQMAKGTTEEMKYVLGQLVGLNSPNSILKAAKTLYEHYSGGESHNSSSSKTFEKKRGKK
`COc1cc(-c2cnc(C)n2C)ccc1Nc1cc2cc(-c3cnn(C4CCN(C(=O)OC(C)(C)C)CC4)c3)ccc2cn1` [Example 4, tert-Butyl 4-(4-(3-((4-(1,2-dimethyl-1H-imidazol-5-yl)-2-methoxyphenyl)amino)isoquinolin-6-yl)-1H-pyrazol-1-yl)piperidine-1-carboxylate] had an IC50 of 110 nM.
Take `COc1cc(-c2cnn(C)c2)ccc1Nc1cc2cc(-c3cnn(CC(C)(C)O)c3)ccc2cn1` [Example 52, 1-(4-(3-(2-Methoxy-4-(1-methyl-1H-pyrazol-4-yl)phenylamino)isoquinolin-6-yl)-1H-pyrazol-1-yl)-2-methylpropan-2-ol]: half-maximal inhibition (IC50) required 4 nM.
Compound `CCOc1cc(-c2nncn2C)ccc1Nc1cc2nc(-c3cnn(CC(C)(C)O)c3)ccc2cn1` [Example 103, 1-(4-(7-(2-Ethoxy-4-(4-methyl-4H-1,2,4-triazol-3-yl)phenylamino)-1,6-naphthyridin-2-yl)-1H-pyrazol-1-yl)-2-methylpropan-2-ol] returned an IC50 of 1 nM.
Regarding `COc1cc(C(=O)N2CC(OC)C2)ccc1Nc1cc2cc(-c3cnn(CC4(O)CCC4)c3)ccc2cn1` [Example 87, (4-((6-(1-((1-Hydroxycyclobutyl)methyl)-1H-pyrazol-4-yl)isoquinolin-3-yl)amino)-3-methoxy-phenyl)(3-methoxyazetidin-1-yl)methanone], the IC50 was found to be 8 nM.
The result for `COc1cc(C(=O)N2CC(OC)C2)ccc1Nc1cc2cc(-c3cnn(CC(C)(C)O)n3)ccc2cn1` [Example 97, (4-(6-(2-(2-Hydroxy-2-methylpropyl)-2H-1,2,3-triazol-4-yl)isoquinolin-3-ylamino)-3-methoxyphenyl)(3-methoxyazetidin-1-yl)methanone] reads 9 nM; that for `COc1cc(C(=O)N2CC(OC)C2)ccc1Nc1cc2cc(-c3cn(CC(C)(C)O)nn3)ccc2cn1` [Example 96, (4-(6-(1-(2-Hydroxy-2-methylpropyl)-1H-1,2,3-triazol-4-yl)isoquinolin-3-ylamino)-3-methoxyphenyl)(3-methoxyazetidin-1-yl)methanone], 2 nM.
Consider `COc1cc(-c2cnc(C)n2C)ccc1Nc1cc2cc(-c3cnn(C)c3)ccc2cn1` [Example 23, N-(4-(1,2-dimethyl-1H-imidazol-5-yl)-2-methoxyphenyl)-6-(1-methyl-1H-pyrazol-4-yl)isoquinolin-3-amine], for which the IC50 came out at 2 nM.
For `COc1cc(-c2cnc(C)n2C)ccc1Nc1cc2cc(-c3ccc(N(C)C(=O)OC(C)(C)C)nc3)ccc2cn1` [Example 12, tert-Butyl (5-(3-((4-(1,2-dimethyl-1H-imidazol-5-yl)-2-methoxyphenyl)amino)isoquinolin-6-yl)pyridin-2-yl)(methyl)carbamate], the IC50 is 713 nM.
For `COc1cc(-c2cnc(C)n2C)ccc1Nc1cc2cc(-c3cnn(CC(C)O)c3)ccc2cn1` (single isomer, unassigned) [Example 99, 1-(4-(3-((4-(1,2-dimethyl-1H-imidazol-5-yl)-2-methoxyphenyl)amino)isoquinolin-6-yl)-1H-pyrazol-1-yl)propan-2-ol], the IC50 was 5 nM.
As for `Cc1nnc(-c2ccc(Nc3cc4cc(-c5cnn(CC(C)(C)O)c5)ccc4cn3)c(Cl)c2)o1` [Example 77, 1-(4-(3-((2-Chloro-4-(5-methyl-1,3,4-oxadiazol-2-yl)phenyl)amino)isoquinolin-6-yl)-1H-pyrazol-1-yl)-2-methylpropan-2-ol], the IC50 turned out to be 23 nM.
With `COc1cc(-c2nnc3n2CCNC3)ccc1Nc1cc2cc(-c3cnn(CC(C)(C)O)c3)ccc2cn1` [Example 112, 1-(4-(3-(2-Methoxy-4-(5,6,7,8-tetrahydro-[1,2,4]triazolo[4,3-a]pyrazin-3-yl)phenylamino)-isoquinolin-6-yl)-1H-pyrazol-1-yl)-2-methylpropan-2-ol], half-maximal inhibition (IC50) required 2 nM.
On to `COc1cc(-c2cnn(C)c2)ccc1Nc1cc2nc(C(=O)N(C)C)ccc2cn1` [Example 107, 7-(2-Methoxy-4-(1-methyl-1H-pyrazol-4-yl)phenylamino)-N,N-dimethyl-1,6-naphthyridine-2-carboxamide], for which the IC50 was found to be 411 nM.
On to `COc1cc(-c2cnc(C)n2C)ccc1Nc1cc2cc(-c3cnn(CC4CCOCC4)c3)ccc2cn1` [Example 1, N-(4-(1,2-dimethyl-1H-imidazol-5-yl)-2-methoxyphenyl)-6-(1-((tetrahydro-2H-pyran-4-yl)methyl)-1H-pyrazol-4-yl)isoquinolin-3-amine], for which the IC50 amounted to 2 nM.
Compound `COc1cc(C(=O)N2CC(OC)C2)ccc1Nc1cc2cc(-c3cnn(C(C)C(C)(C)O)c3)ccc2cn1` (racemic) [Example 76, (4-((6-(1-(3-Hydroxy-3-methylbutan-2-yl)-1H-pyrazol-4-yl)isoquinolin-3-yl)amino)-3-methoxyphenyl)(3-methoxyazetidin-1-yl)methanone] registered an IC50 of 5 nM.
Consider `COc1cc(C(=O)N2CC(OC)C2)ccc1Nc1cc2cc(-c3cnn(C4CCCCC4O)c3)ccc2cn1` (racemic) [Example 85, (4-((6-(1-(2-Hydroxycyclohexyl)-1H-pyrazol-4-yl)isoquinolin-3-yl)amino)-3-methoxyphenyl)(3-methoxyazetidin-1-yl)methanone], for which half-maximal inhibition (IC50) required 15 nM.
The compound `COc1cc(-c2cncn2C)ccc1Nc1cc2cc(-c3cnn(C)c3)ccc2cn1` [Example 21, N-(2-methoxy-4-(1-methyl-1H-imidazol-5-yl)phenyl)-6-(1-methyl-1H-pyrazol-4-yl)isoquinolin-3-amine] registered a half-inhibitory concentration (IC50) of 3 nM.
As for `COc1cc(-c2nnc3n2CCN(C(=O)OC(C)(C)C)C3)ccc1Nc1cc2cc(-c3cnn(CC(C)(C)O)c3)ccc2cn1` [Example 55, tert-Butyl 3-(4-(6-(1-(2-hydroxy-2-methylpropyl)-1H-pyrazol-4-yl)isoquinolin-3-ylamino)-3-methoxyphenyl)-5,6-dihydro-[1,2,4]triazolo[4,3-a]pyrazine-7(8H)-carboxylate], the IC50 was found to be 3 nM.
For `COc1cc(-c2nnc3n2CCN(C)C3)ccc1Nc1cc2cc(-c3cnn(CC(C)(C)O)c3)ccc2cn1` [Example 70, 1-(4-(3-((2-Methoxy-4-(7-methyl-5,6,7,8-tetrahydro-[1,2,4]triazolo[4,3-a]pyrazin-3-yl)-phenyl)amino)isoquinolin-6-yl)-1H-pyrazol-1-yl)-2-methylpropan-2-ol], inhibition was half-maximal at 2 nM (IC50).
For `COc1cc(-c2cnc(C)n2C)ccc1Nc1cc2nc(-c3cnn(CC4(O)CCC4)c3)ccc2cn1` [Example 106, 1-((4-(7-(4-(1,2-Dimethyl-1H-imidazol-5-yl)-2-methoxyphenylamino)-1,6-naphthyridin-2-yl)-1H-pyrazol-1-yl)methyl)cyclobutanol], the midpoint of inhibition, the IC50, lay at 1 nM.
`COc1cc(-c2cnc(C)n2C)ccc1Nc1cc2cc(-c3cnn(CC(F)F)c3)ccc2cn1` [Example 3, 6-(1-(2,2-Difluoroethyl)-1H-pyrazol-4-yl)-N-(4-(1,2-dimethyl-1H-imidazol-5-yl)-2-methoxyphenyl)isoquinolin-3-amine] displayed an IC50 of 2 nM.
Next, `COCC(Cn1cc(-c2ccc3cnc(Nc4ccc(C(=O)N5CC(OC)C5)cc4OC)cc3c2)cn1)OC` (racemic) [Example 79, (4-((6-(1-(2,3-Dimethoxypropyl)-1H-pyrazol-4-yl)isoquinolin-3-yl)amino)-3-methoxyphenyl)(3-methoxyazetidin-1-yl)methanone]: 9 nM.
